This experiment has as its system pancreatic lymph nodes (PLN) CD4 and CD8 T cells of humanized T1D mice. Nature of the experiment: In-vitro CFSE proliferation assay of pancreatic lymph node T cells stimulated with rGAD65. The experiment is classed as cell-based. As to conditions: pulse stimulation 4 ug/ml for 4 days; PLN single cell suspension of diabetic mouse; CFSE tracking. The protocol: FIG. 6C: rGAD65 induced proliferation of CD4 and CD8 cells, pancreatic lymph nodes (PLN) were isolated from humanized T1D mice and were stimulated with GAD65 (4 μg/ml) for 4 days (n=4). The proliferation of cells were tracked using CFSE and analyzed by FLOWJO V10 Beta software using fix ratio, fix CV and fix background from the un-stimulated cells.
The diabetogenic T cells are auto-antigen specific in nature. The pancreatic lymph nodes (PLN) of a diabetic mouse were isolated and the single cell suspension was stimulated with recombinant human GAD65 protein (4 ug/ml). In-vitro proliferation assay using carboxyfluorescein succinimidyl ester (CFSE) to track the T cell proliferation was performed. Pulse stimulation with human rGAD65 (4 ug/ml) for 4 days increased the CD4 and CD8 proliferation by 9-10 folds (FIG. 6C).

As to “human rGAD65: recombinant human Glutamic Acid Decarboxylase 65 protein used as autoantigen stimulus”, the “increase of CD4 and CD8 proliferation” value was 9-10 folds.

For the origin of these results see patent US11974552B2, “Transgenic C57BL6-BTBR mouse with a humanized MHC II gene that expresses GAD65” (The University of Toledo, priority 2018, dated 2024).
